One compound from patent US10258635B2, “Formulations and compositions of vitamin D analogs for treating and preventing cancer and other diseases” (priority 2013, dated 2019) can be followed below.

Entries after “also recorded” stand apart in the source; their conditions may differ.

In series [1] the target is VDR (Homo sapiens, UniProt P11473). The series can be described thus: Covalent linking to and activation of VDR. It counts as biochemical. The note with it: covalent link in ligand-binding pocket via a cysteine residue.
Chain of VDR (P11473 whole entry): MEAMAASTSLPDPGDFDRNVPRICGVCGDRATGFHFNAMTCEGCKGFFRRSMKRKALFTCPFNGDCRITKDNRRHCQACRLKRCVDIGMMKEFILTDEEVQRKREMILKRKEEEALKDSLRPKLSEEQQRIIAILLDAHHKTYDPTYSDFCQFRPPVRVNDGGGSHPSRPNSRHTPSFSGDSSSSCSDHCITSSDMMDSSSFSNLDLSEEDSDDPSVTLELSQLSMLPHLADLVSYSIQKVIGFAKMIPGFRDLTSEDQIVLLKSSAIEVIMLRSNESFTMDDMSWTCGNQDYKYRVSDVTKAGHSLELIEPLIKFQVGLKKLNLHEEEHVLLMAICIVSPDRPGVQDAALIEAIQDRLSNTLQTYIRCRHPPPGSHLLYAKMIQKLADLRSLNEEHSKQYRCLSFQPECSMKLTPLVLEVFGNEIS
In series [2] the test system is LNCaP, PC-3 and DU-145 prostate cancer cells. The experiment in a line: Anti-proliferation and apoptosis in prostate cancer cells (summary). Format: cell-based.
Series [3] can be described thus: Stability study in liver homogenate. It counts as in vitro ADME, mouse. The note with it: 37° C., 60 minutes, HPLC. On the procedure:
Pieces of liver, obtained from normal mice were minced and homogenized in phosphated saline with a polytron. […] The organic layer was dried in a stream of nitrogen and the residue was analyzed by HPLC (as above).

Series [4] is described as follows: Serum-stability study. Particulars: pooled human serum, 37° C., 60 minutes, HPLC. It counts as in vitro ADME. The method, then: The organic layer was dried in a stream of nitrogen and the residue was analyzed by HPLC (5% H2O— 95% methanol 1.5 ml/min, 265 nm detection, Agilent C18 column).
Series [5] can be described thus: Maximum tolerated dose of AMPI-109 in DU-145 tumor-bearing SCID mice. It counts as in vivo. The method, then: DU-145 prostate cancer cells (ATCC, Manassas, Va.) were grown in culture, and then approximately 5 million cells/animal was injected under the skin in the flank area of SCID mice (Charles River). Tumors grew in 2-3 weeks, and when they reached a size of approximately 1 cm^3, they were injected with 0.1, 0.5 and 1 μg/kg dose of AMPI-109 (in 5% […] in sesame oil) intraperitoneally. Dosing levels were limited by concentrations and volumes. Each group had six mice. Dosing was carried out every third day and weight of each mouse was recorded.

Series [6] concerns 24-OHase. The series can be described thus: Message for 24-OHase in LNCaP cells. Format: cell-based.
Series [7] relates to DU-145 human prostate cancer cells. The experiment in a line: DU-145 xenograft efficacy, p.o. administration (Example 11). Format: in vivo, nude mice.
For series [8], the system named is DU-145 cells. The series can be described thus: 3H-thymidine incorporation assay in DU-145 cells. It counts as cell-based, human.
The subject of series [9] is RCC 54 kidney cancer cells. Particulars: 7.5×10^−7 to 10^−6M.
Experimental: In a typical assay cells were grown to 50-60% confluence in 24-well plates in respective media containing 5% FBS, and serum starved for 20 hours, followed by treatment with various agents (in 0.1% ethanolic solution) or ethanol (vehicle) in serum-containing medium for 16 hours. After the treatment media was removed from the wells and replaced with media containing ^3H-thymidine (Sigma, 0.1 μCi) per well, and the cells were incubated for 3 hours at 37° C. After this period media was removed by aspiration and the cells were washed thoroughly (3×0.5 ml) with PBS. Ice-cold 5% perchloric acid solution (0.5 ml) was added to each well and the cells were incubated on ice for 20 minutes. After this incubation, perchloric acid was removed by aspiration, replaced with 0.5 ml of fresh perchloric acid solution and the cells were incubated at 70° C. for 20 minutes. Solution from each well was mixed with scintillation fluid and counted in a liquid scintillation counter. There were eight (8) wells per sample; statistics was carried out by Student's t test.
In series [10] the test system is LNCaP prostate cancer cells. The experiment in a line: 3H-thymidine incorporation assay, APH-0701 vs naked AMPI-109. It counts as cell-based. The method, then:
Antiproliferative activities in these cells were measured by ^3H-thymidine incorporation assay.

For series [11], the system named is DU-145 human prostate cancer cells. The experiment in a line: DU-145 xenograft efficacy, i.p. administration (Example 10). Format: in vivo, athymic mice. The method, then:
Male, athymic mice (average weight 20 gm) were fed normal rat chow and water ad libitum. They were inoculated with DU 145 cells, grown in culture in their flanks under light anesthesia. When the tumor size grew to approximately 100 mm^3 the animals were randomized into groups of ten (10) tumor-bearing animals, and they were given AMPI-109 (0.1 μg/kg), calcitriol (0.5 and 1 μg/kg), and vehicle (5% DMA in sesame oil) by intraperitoneal injection (i.p.) on every third day (when body weights were determined); and one group was left untreated. Treatment started on day 11 and stopped on day 30; and they were left untreated for two (2) additional days when they were sacrificed.

Series [12] deals with normal kidney cells. The experiment in a line: 3H-thymidine incorporation assay in normal kidney cells. Format: cell-based. The note with it: 10^−6M.
Series [13] deals with DU-145 human prostate cancer cells. The experiment in a line: DU-145 xenograft, AMPI-109 vs APH-0701 (Example 12). It counts as in vivo, athymic mice. Particulars: 0.5 μg/Kg. On the procedure: Male, athymic mice (average weight 20 gm) were fed normal rat chow and water ad libitum. They were inoculated with DU-145 cells (5×10^6 cells, dispersed in 100 μl PBS) in the flank.

Turning to `C=C1/C(=C\C=C2/CCC[C@@]3(C)C2CC[C@@H]3C(C)CCCC(C)(C)O)C[C@@H](OC(=O)CBr)CC1O` (stereo partly drawn) [AMPI-109, 1α,25-dihydroxyvitamin D3-3-bromoacetate], the VDR activation result in [1] is recorded as “constitutively activated VDR”. In addition, in series [2], the apoptosis entry is recorded as “induced apoptosis”. Moreover, in series [2] (mole-per-mole basis), the “anti-proliferative strength relative to calcitriol” value was “significantly stronger anti-proliferative agent than calcitriol”. Also, the “stability in mouse liver homogenate” value in [3] was “corresponds to the peak of a standard sample”. For the same compound, in series [4], the “stability in human serum” value was “corresponds to the peak of a standard sample”. The mortality entry in [5] (1 μg/kg i.p. every third day) was “All mice in the 1 μg/Kg dose died after three dosing”. The “relative MTD” value in series [5] (i.p., every third day, based on dosing) was no more than 3 µg/kg. Further, the “message for 24-OHase” value in series [6] is listed as “up regulated”. The anti-tumor effect result in [7] (0.5 μg/kg p.o. oral gavage) is listed as “strong anti-tumor effect”; in [11] (0.1 μg/kg i.p. every third day, day 11 to 30), “strong anti-tumor effect”. The “potency in p.o.-mode relative to i.p.-mode (times less potent)” value in [7] (mouse, in vivo) turned out to be 5 times. Besides, the body weight result in series [7] (p.o., calcitriol 0.5 μg/kg and 1.0 μg/kg, AMPI-109 0.5 μg/kg) is listed as “did not cause any significant change in body weight”; in series [11] (0.1 μg/kg i.p.) it was “some reduction in body weight”. The “antiproliferative effect in DU-145 cells” value in [8] (2.5×10^−7M to 10^−6M, 20 hours) is “strong and dose-dependent antiproliferative effect”. In addition, the “anti-proliferative effect in DU-145 cells” value in series [8] (10^−6M, separate experiment) was “strong anti-proliferative effect; also recorded: significantly stronger antiproliferative agent than EB-1089”. Moreover, the “reduction of proliferation of RCC 54 kidney cancer cells” value in series [9] is listed as greater than 95%. The “growth of LNCaP cells” value in series [10] is on record as “almost completely inhibited the growth of LNCaP cells”. Also, in [11] (i.p., weight basis), the “potency relative to calcitriol in reducing tumor-size” value is “approximately 5 times”. The “impact on normal kidney cells versus control” value in series [12] is on record as “neither Calcitriol nor AMPI-109 had any statistically different impact”. In series [13], the gross body-weights result was “not significantly different from control animals”. Moreover, in series [13] (every third day, day 7 to 42), the “average size of tumors at the end of the experiment” value was roughly 475 mm^3.
